Assay results reported in US9163020B2, “Azaindole compounds, synthesis thereof, and methods of using the same” (Global Alliance for TB Drug Development, priority 2013, dated 2015).
Values after ≈ are worked out from the molar mass of the structure shown. Read-outs that look alike come from different tables or passages of the source.

Legend:
[1] = test system: Mycobacterium tuberculosis (Mtb) H37Rv ATCC 27294; assay: microbe, parasite or virus in culture; format: cell-based; details: Mycobacterium tuberculosis, read-out: Mtb MIC
[2] = test system: Mycobacterium tuberculosis (Mtb) H37Rv; assay: Mtb minimal bactericidal concentration (MBC), plating from MIC plates; format: cell-based; details: Table 4, read-out: Mtb MBC
Method: Aliquots from sample wells (MIC and higher) from the MIC plates were diluted 1:10 and plated on 7H10 agar plates. Plates were incubated at 37° C. for 3-4 weeks, CFU was enumerated.

[3] = test system: hypoxia induced non-replicating persistent (NRP) Mtb cells; assay: Activity against hypoxia induced non-replicating persistent (NRP) Mtb (HBC, Wayne model); format: cell-based, Mycobacterium tuberculosis; details: hypoxic conditions, Wayne model; Table 4
[4] = test system: A549 human lung carcinoma cells; format: cell-based; details: 72 hours treatment; Table 4
Method: The in vitro cytotoxicity of compounds were measured against A549 human lung carcinoma cells as describedin Eakin et. al (2012). Briefly, A549 cells (ATCC) were grown in RPMI medium (GIBCO-BRL) containing 10% heat-inactivated fetal bovine serum (GIBCO-BRL) and 1 mM L-glutamine (GIBCO-BRL) at a density of 1,000 cells/well. After incubation of the cells with compound in a CO2 atmosphere at 37° C. for 72 hours, cell viability was determined following addition of […] of resazurin solution (Sigma), by measuring fluorescence (excitation at 535 nm, emission at 590 nm) using a fluorimeter.

[5] = format: in vitro ADME
Method: 1 μM compound was incubated with 1 mg/mL of microsomes (Pooled HLM/MLM with 20 mg/ml protein cone.) at 37° C. in 166 μL of buffer (100 mM phosphate buffer, pH-7.4) containing 2 mM NADPH solution. […] The quench plate was centrifuged at 4000 rpm for 15 min. 30 μL of supernatant was diluted to 300 μL with 50% acetonitrile in water and substrate depletion was analyzed using LC-MS/MS.

[6] = Method: Viability of cryopreserved hepatocytes was determined using trypan blue and the cell conc. was adjusted to 10^6 cells per mL with buffer (KHB buffer). 1 μM compound (in Acetonitrile; 0.01% DMSO) was incubated with 500 μL of hepatocyte cells (1 million cells per mL) in a NUNC plate. […] Supernatants were analyzed using LC-MS/MS for substrate depletion.
in vitro = in vitro ADME; details: pH 7.4; mouse microsomes; read-out: Mo micrsomal Clint
Method: 1 μM compound was incubated with 1 mg/mL of microsomes (Pooled HLM/MLM with 20 mg/ml protein cone.) at 37° C. in 166 μL of buffer (100 mM phosphate buffer, pH-7.4) containing 2 mM NADPH solution. 20 μL of incubation mix was quenched with 4 volumes chilled acetonitrile at different time points i.e. 0, 2, 5, 10, 20 and 30 min in a fresh 96 well plate. The quench plate was centrifuged at 4000 rpm for 15 min. 30 μL of supernatant was diluted to 300 μL with 50% acetonitrile in water and substrate depletion was analyzed using LC-MS/MS.

in vivo [7] = assay: in vivo
Method: PK of azaindoles compounds was performed in mice (healthy and infected) and rats. Mice were pretreated with 100 mg/kg ABT two hours prior to the compound administration. PK data from healthy mice was used to design the dosing regimen for the efficacy study while, information from infected mice was used for the PK-PD analysis.
All oral administration was performed as suspensions in 0.5% HPMC, and 0.1% Tween 80. […] All blood samples were collected via sapheneous vein into Microvette CB300® (Starstedt, Germany) tubes coated with Lithium-Heparin, and plasma was prepared from the collected blood by centrifugation.
One mg/mL stock solution of each compound was prepared in Dimethylsulfoxide (DMSO) and diluted two-fold with acetonitrile. A sixteen point calibration curve was utilized for each analyte, and the standard curves ranged from 0.001 to 40 μg/mL. Plasma/BAL samples were precipitated by adding chilled acetonitrile (1:10 v/v) containing carbamazepine as internal standard (250 ng/mL). Samples were vortexed, and centrifuged at 4000 rpm for 30 min at 10° C. The resulting supernatant was mixed with mobile phase (50% acetonitrile in water with 0.1% formic acid). […] of sample was injected on to a liquid chromatographic system (Waters-ACQUTY UPLC) coupled to triple quadrupole mass spectrometer (Waters-ACQUTY-TQD; MS/MS). Samples were acquired in positive ion mode and detected by multiple reaction monitoring (MRM). Concentrations of the analyte were determined from a standard curve obtained by plotting known concentrations of the analyte against peak area ratios (analyte/internal standard peak response).
PK analysis of the plasma concentration-time relationships were performed with WinNonlin Phoenix Software (version 6.2; Pharsight, USA). […] The maximum concentration of drug in plasma (Cmax), time to Cmax (Tmax), elimination half-life (t1/2), and AUC from time zero to infinity (AUC0-∞) were estimated. […] Minimum of three sample points in the terminal slope were used to estimate to calculate half-life.

[8] = test system: CYP1A2, CYP2C9, CYP2C19, CYP2D6, CYP3A4; details: CYP1A2, CYP2C9, CYP2C19, CYP2D6, CYP3A4
[9] = test system: panel of human targets and cardiac channels
in vivo [10] = details: male, Wistar, rat, po, 100 mg/kg
hERG = hERG (Homo sapiens, UniProt Q12809); assay: hERG assay, IonWorks electrophysiology
Sequence of hERG (Q12809 whole entry): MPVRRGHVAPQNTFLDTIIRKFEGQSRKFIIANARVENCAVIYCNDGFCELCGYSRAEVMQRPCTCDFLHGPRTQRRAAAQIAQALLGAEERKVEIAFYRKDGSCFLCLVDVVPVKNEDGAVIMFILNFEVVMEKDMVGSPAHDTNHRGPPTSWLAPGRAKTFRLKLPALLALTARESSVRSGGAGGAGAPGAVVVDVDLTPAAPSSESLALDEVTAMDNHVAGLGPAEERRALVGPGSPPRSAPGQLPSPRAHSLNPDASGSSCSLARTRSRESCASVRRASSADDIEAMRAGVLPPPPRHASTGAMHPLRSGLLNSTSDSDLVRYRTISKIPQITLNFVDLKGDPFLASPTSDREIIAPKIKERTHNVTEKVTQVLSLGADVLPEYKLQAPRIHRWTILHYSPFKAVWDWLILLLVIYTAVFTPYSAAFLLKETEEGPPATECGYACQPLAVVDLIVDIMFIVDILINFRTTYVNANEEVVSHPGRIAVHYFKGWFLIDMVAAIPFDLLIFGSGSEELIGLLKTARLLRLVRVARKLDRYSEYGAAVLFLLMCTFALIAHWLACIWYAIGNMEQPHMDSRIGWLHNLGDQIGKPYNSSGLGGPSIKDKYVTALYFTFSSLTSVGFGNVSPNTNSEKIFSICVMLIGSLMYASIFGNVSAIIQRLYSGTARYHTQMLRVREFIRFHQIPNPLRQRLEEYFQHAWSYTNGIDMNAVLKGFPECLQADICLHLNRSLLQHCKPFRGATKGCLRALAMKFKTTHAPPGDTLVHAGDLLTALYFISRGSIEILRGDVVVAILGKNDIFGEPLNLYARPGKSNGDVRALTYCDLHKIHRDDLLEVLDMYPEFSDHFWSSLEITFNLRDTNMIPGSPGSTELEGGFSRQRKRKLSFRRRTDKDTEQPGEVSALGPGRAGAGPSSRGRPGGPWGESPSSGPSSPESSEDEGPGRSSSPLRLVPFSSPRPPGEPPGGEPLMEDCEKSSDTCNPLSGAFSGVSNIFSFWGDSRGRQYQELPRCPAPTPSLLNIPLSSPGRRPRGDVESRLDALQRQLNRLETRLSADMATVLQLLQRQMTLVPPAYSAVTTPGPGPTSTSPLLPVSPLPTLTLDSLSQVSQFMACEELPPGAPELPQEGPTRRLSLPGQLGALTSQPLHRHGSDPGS
Method: Compounds were tested on voltage-gated ion channels using the medium-throughput electrophysiology IonWorks™ device. […] For carrying out the experiment, a boat in the “Cells” position of the IonWorks™ instrument was loaded with the cell suspension, and a 96-well PBS destination plate was placed in the “Plate 1” position. A 384-well PatchPlate™ was placed in the IonWorks™ plenum and held in position using the plenum clamp. From this point the experiment progress is automated and ultimately reports a non-cumulative concentration-effect curve for test compound.

[11] = Wistar, rat, in vivo, iv, 2 mg/kg
[12] = Wistar, rat, in vivo, po, 20 mg/kg

Question: Which MIC ([1]; Table 1) does the source give for COc1ncnc(Cn2cc(C(=O)NCCO)c3ncc(C)cc32)c1C [Compound 17, N-(2-hydroxyethyl)-1-((6-methoxy-5-methylpyrimidin-4-yl)methyl)-6-methyl-1H-pyrrolo[3,2-b]pyridine-3-carboxamide] here?
Answer: 1.56 µM (≈ 0.554 µg/mL)

Question: And the MIC ([1]; Table 4)?
Answer: 1.56 to 3.12 µM (≈ 0.554 to 1.11 µg/mL)

Question: What about the MBC [2] of the same compound?
Answer: 0.78 to 1.56 µM (≈ 0.277 to 0.554 µg/mL)

Question: What about the “Mtb HBC” value [3] of the same compound?
Answer: >100 µM

Question: What about the “MMIC (A549)” value [4] of the same compound?
Answer: >100 µM

Question: What about the predicted clearance ([5]; human, rat) of the same compound?
Answer: 4-18 % of liver blood flow (% LBF)

Question: What about the “Human CLpred microsomes (% LBF)” value ([5]; pH 7.4) of the same compound?
Answer: 16.1 % LBF

Question: What about the “Human CLpred hepatocytes (% LBF)” value [6] of the same compound?
Answer: 9.2 % LBF

Question: What about the “Rat CLpred hepatocytes (% LBF)” value [6] of the same compound?
Answer: 17.9 % LBF

Question: What about the microsomal CLint (in vitro) of the same compound?
Answer: 25 µL/min/mg

Question: What about the AUC(0-inf) (in vivo [7]; BALB/c, mouse, po, 50 mg/kg) of the same compound?
Answer: 420 ± 23.5 µM·h

Question: And the Cmax (in vivo [7]; BALB/c, mouse, po, 50 mg/kg)?
Answer: 74.8 ± 15.6 µM

Question: And the Tmax (in vivo [7]; BALB/c, mouse, po, 50 mg/kg)?
Answer: 1.33 ± 0.58 h

Question: And the half-life (in vivo [7]; BALB/c, mouse, po, 50 mg/kg)?
Answer: 1.78 ± 0.1 h

Question: And the C0h (in vivo [7]; Wistar rats, IV 2 mg/kg, n = 2)?
Answer: 2.64 µM

Question: And the F (in vivo [7]; Wistar rats, oral 20 mg/kg, n = 2)?
Answer: 100%

Question: What about the AUC(0-t) (in vivo [7]; [11]) of the same compound?
Answer: 3.46 µM·h

Question: And the Vd (in vivo [7]; [11])?
Answer: 7.34 L/kg

Question: And the clearance (in vivo [7]; [11])?
Answer: 1.64 L/h/kg

Question: What about the bioavailability (in vivo [7]; Wistar, rat, in vivo, po) of the same compound?
Answer: 92%

Question: And the AUC(0-inf) (in vivo [7]; [12])?
Answer: 59.8 µM·h

Question: What about the Cmax (in vivo [7]; [12]) of the same compound?
Answer: 17.8 µM

Question: What about the Tmax (in vivo [7]; [12]) of the same compound?
Answer: 0.5 h

Question: What about the half-life (in vivo [7]; [12]) of the same compound?
Answer: 2.74 h

Question: What about the CYP inhibition [8] of the same compound?
Answer: >50 µM

Question: And the “Secondary pharmacology hits IC50” value [9]?
Answer: No significant hits

Question: And the “in vitro safety profiling” value [9]?
Answer: no major safety liabilities

Question: And the AUC(0-inf) (in vivo [10])?
Answer: 986 ± 274 µM·h

Question: What about the Cmax (in vivo [10]) of the same compound?
Answer: 46.1 ± 7.7 µM

Question: What about the Tmax (in vivo [10]) of the same compound?
Answer: 5.3 ± 1.2 h

Question: And the half-life (in vivo [10])?
Answer: 3.8 ± 0.6 h

Question: And the hERG (hERG)?
Answer: >33 µM
